Laboratory results published in patent US20110207723A1, “NOVEL FUSED AMINODIHYDROTHIAZINE DERIVATIVE” (EISAI R&D MANAGEMENT CO., LTD., priority 2008, published 2011).

tested on: Aβ42 production; test: Quantification of Aβ peptide in culture of neurons from rat fetus brain (Aβ42 ELISA); type: cell-based; settings: Neuron, 72 h, rat primary neuronal culture (embryonic day 18 Wistar rat cerebral cortex), medium collected three days after addition of compound, read-out: Aβ42 production reducing effect IC50
Method: Quantification of Aβ Peptide in Culture of Neurons from Rat Fetus Brain
Primary neuronal cultures were prepared from the cerebral cortex of embryonic day 18 Wistar rats (Charles River Japan, Yokohama, Japan). Specifically, the embryos were aseptically removed from pregnant rats under ether anesthesia. The brain was isolated from the embryo and immersed in an ice-cold L-15 medium (such as Invitrogen Corp. Cat #11415-064, Carlsbad, Calif., USA, or SIGMA L1518). The cerebral cortex was collected from the isolated brain under a stereoscopic microscope. The cerebral cortex fragments collected were enzymatically treated in an enzyme solution containing 0.25% trypsin (Invitrogen Corp. Cat #15050-065, Carlsbad, Calif., USA) and 0.01% DNase (Sigma D5025, St. Louis, Mo., USA) at 37° C. for 30 minutes to disperse the cells. Here, the enzymatic reaction was stopped by adding inactivated horse serum to the solution. The enzymatically treated solution was centrifuged at 1,500 rpm for five minutes to remove the supernatant. 5 to 10 ml of a medium was added to the resulting cell mass. Neurobasal medium (Invitrogen Corp. Cat #21103-049, Carlsbad, Calif., USA) supplemented with 2% B27 supplement (Invitrogen Corp. Cat #17504-044, Carlsbad, Calif., USA), 25 μM 2-mercaptoethanol (2-ME, WAKO Cat #139-06861, Osaka, Japan), 0.5 mM L-glutamine (Invitrogen Corp. Cat #25030-081, Carlsbad, Calif., USA), and Antibiotics-Antimycotics (Invitrogen Corp. Cat #15240-062, Carlsbad, Calif., USA) was used as the medium (Neurobasal/B27/2-ME). However, the above Neurobasal medium not supplemented with 2-ME (Neurobasal/B27) was used for the assay. The cells were redispersed by mild pipetting of the cell mass to which the medium was added. The cell dispersion was filtered through a 40-μm nylon mesh (Cell Strainer, Cat #35-2340, Becton Dickinson Labware, Franklin Lakes, N.J., USA) to remove the remaining cell mass, and thus a neuronal cell suspension was obtained. The neuronal cell suspension was diluted with the medium and then plated in a volume of 100 μl/well at an initial cell density of 5×10^5 cells/cm^2 in a 96-well polystyrene culture plate pre-coated with poly-L or D-lysine (Falcon Cat #35-3075, Becton Dickinson Labware, Franklin Lakes, N.J., USA coated with poly-L-lysine using the method shown below, or BIOCOAT™ cell environments Poly-D-lysine cell ware 96-well plate, Cat #35-6461, Becton Dickinson Labware, Franklin Lakes, N.J., USA). Poly-L-lysine coating was carried out as follows. 100 μg/ml of a poly-L-lysine (SIGMA P2636, St. Louis, Mo., USA) solution was aseptically prepared with a 0.15 M borate buffer (pH 8.5). […] of the solution was added to the 96-well polystyrene culture plate and incubated at room temperature for one or more hours or at 4° C. overnight or longer. Thereafter, the coated 96-well polystyrene culture plate was washed with sterile water four or more times, and then dried or rinsed with, for example, sterile PBS or medium, and used for cell plating. The plated cells were cultured in the culture plate at 37° C. in 5% CO2-95% air for one day. Then, the total amount of the medium was replaced with a fresh Neurobasal/B27/2-ME medium, and then the cells were cultured for further three days.
The drug was added to the culture plate on Day 4 of culture as follows. The total amount of the medium was removed from the wells, and 180 μl/well of Neurobasal medium not containing 2-ME and containing 2% B-27 (Neurobasal/B27) was added thereto. A solution of the test compound in dimethyl sulfoxide (hereinafter abbreviated as DMSO) was diluted with Neurobasal/B27 to a concentration 10-fold higher than the final concentration. 20 μl/well of the dilution was added to and sufficiently mixed with the medium. The final DMSO concentration was 1% or less. Only DMSO was added to the control group.
The cells were cultured for three days after addition of the compound, and the total amount of the medium was collected. […]

Row | SMILES | IC50 [nM]
1 | COC[C@H]1C[C@H]2CSC(N)=N[C@@]2(c2cc(NC(=O)c3cnc(C(F)F)cn3)ccc2F)CO1 (relative stereo) [Example 12, N-[3-((4aR*,6R*,8aS*)-2-amino-6-methoxymethyl-4,4a,5,6-tetrahydro-7-oxa-3-thia-1-azanaphthalen-8a-yl)-4-fluorophenyl]-5-difluoromethylpyrazine-2-carboxamide] | 1.1
2 | COC[C@H]1C[C@H]2CSC(N)=N[C@@]2(c2cc(NC(=O)c3ccc(Cl)cn3)ccc2F)CO1 (relative stereo) [Example 13, N-[3-((4aR*,6R*,8aS*)-2-amino-6-methoxymethyl-4,4a,5,6-tetrahydro-7-oxa-3-thia-1-azanaphthalen-8a-yl)-4-fluorophenyl]-5-chloropyridine-2-carboxamide] | 1
3 | COC[C@H]1C[C@H]2CSC(N)=N[C@@]2(c2cc(NC(=O)c3cnc(OCF)cn3)ccc2F)CO1 (relative stereo) [Example 14, N-[3-((4aR*,6R*,8aS*)-2-amino-6-methoxymethyl-4,4a,5,6-tetrahydro-7-oxa-3-thia-1-azanaphthalen-8a-yl)-4-fluorophenyl]-5-fluoromethoxypyrazine-2-carboxamide] | 0.8
4 | COC[C@H]1C[C@H]2CSC(N)=N[C@@]2(c2cc(NC(=O)c3cnc(OC(F)F)cn3)ccc2F)CO1 (relative stereo) [Example 15, N-[3-((4aR*,6R*,8aS*)-2-amino-6-methoxymethyl-4,4a,5,6-tetrahydro-7-oxa-3-thia-1-azanaphthalen-8a-yl)-4-fluorophenyl]-5-difluoromethoxypyrazine-2-carboxamide] | 0.4
5 | C[C@@H]1COC[C@]2(c3cc(NC(=O)c4ccc(Cl)cn4)ccc3F)N=C(N)SC[C@H]12 (relative stereo) [Example 23, N-[3-((4aR*,5S*,8aS*)-2-amino-5-methyl-4,4a,5,6-tetrahydro-7-oxa-3-thia-1-azanaphthalen-8a-yl)-4-fluorophenyl]-5-chloropyridine-2-carboxamide] | 12
6 | C[C@@H]1COC[C@]2(c3cc(NC(=O)c4ccc(C#N)cn4)ccc3F)N=C(N)SC[C@H]12 (relative stereo) [Example 24, N-[3-((4aR*,5S*,8aS*)-2-amino-5-methyl-4,4a,5,6-tetrahydro-7-oxa-3-thia-1-azanaphthalen-8a-yl)-4-fluorophenyl]-5-cyanopyridine-2-carboxamide] | 9
7 | C[C@@H]1COC[C@]2(c3cc(NC(=O)c4cnc(OC(F)F)cn4)ccc3F)N=C(N)SC[C@H]12 (relative stereo) [Example 25, N-[3-((4aR*,5S*,8aS*)-2-amino-5-methyl-4,4a,5,6-tetrahydro-7-oxa-3-thia-1-azanaphthalen-8a-yl)-4-fluorophenyl]-5-difluoromethoxypyrazine-2-carboxamide] | 14
8 | C[C@H]1COC[C@]2(c3cc(NC(=O)c4ccc(Cl)cn4)ccc3F)N=C(N)SC[C@H]12 (relative stereo) [Example 26, N-[3-((4aR*,5R*,8aS*)-2-amino-5-methyl-4,4a,5,6-tetrahydro-7-oxa-3-thia-1-azanaphthalen-8a-yl)-4-fluorophenyl]-5-chloropyridine-2-carboxamide] | 3
9 | C[C@H]1COC[C@]2(c3cc(NC(=O)c4ccc(C#N)cn4)ccc3F)N=C(N)SC[C@H]12 (relative stereo) [Example 27, N-[3-((4aR*,5R*,8aS*)-2-amino-5-methyl-4,4a,5,6-tetrahydro-7-oxa-3-thia-1-azanaphthalen-8a-yl)-4-fluorophenyl]-5-cyanopyridine-2-carboxamide] | 8
10 | C[C@H]1COC[C@]2(c3cc(NC(=O)c4cnc(OC(F)F)cn4)ccc3F)N=C(N)SC[C@H]12 (relative stereo) [Example 28, N-[3-((4aR*,5R*,8aS*)-2-amino-5-methyl-4,4a,5,6-tetrahydro-7-oxa-3-thia-1-azanaphthalen-8a-yl)-4-fluorophenyl]-5-difluoromethoxypyrazine-2-carboxamide] | 1.4
11 | C[C@H]1COC[C@]2(c3cc(NC(=O)c4cnc(C(F)F)cn4)ccc3F)N=C(N)SC[C@H]12 (relative stereo) [Example 29, N-[3-((4aR*,5R*,8aS*)-2-amino-5-methyl-4,4a,5,6-tetrahydro-7-oxa-3-thia-1-azanaphthalen-8a-yl)-4-fluorophenyl]-5-difluoromethylpyrazine-2-carboxamide] | 3
12 | CO[C@H]1COC[C@]2(c3cc(NC(=O)c4ccc(C#N)cn4)ccc3F)N=C(N)SC[C@H]12 (relative stereo) [Example 30, N-[3-((4aS*,5R*,8aS*)-2-amino-5-methoxy-4,4a,5,6-tetrahydro-7-oxa-3-thia-1-azanaphthalen-8a-yl)-4-fluorophenyl]-5-cyanopyridine-2-carboxamide] | 6
13 | C[C@H]1SC(N)=N[C@@]2(c3cc(NC(=O)c4ccc(C#N)cn4)ccc3F)COCC[C@@H]12 (relative stereo) [Example 31, N-[3-((2R*,4aR*,8aS*)-2-amino-4-methyl-4,4a,5,6-tetrahydro-7-oxa-3-thia-1-azanaphthalen-8a-yl)-4-fluorophenyl]-5-cyanopyridine-2-carboxamide] | 1.9
14 | C[C@H]1SC(N)=N[C@@]2(c3cc(NC(=O)c4cnc(C(F)F)cn4)ccc3F)COCC[C@@H]12 (relative stereo) [Example 32, N-[3-((2R*,4aR*,8aS*)-2-amino-4-methyl-4,4a,5,6-tetrahydro-7-oxa-3-thia-1-azanaphthalen-8a-yl)-4-fluorophenyl]-5-difluoromethylpyrazine-2-carboxamide] | 3
15 | N#Cc1ccc(C(=O)Nc2ccc(F)c([C@]34CO[C@@H](C(F)(F)F)C[C@H]3CSC(N)=N4)c2)nc1 (relative stereo) [Example 35, N-[3-((4aR*,6R*,8aS*)-2-amino-6-trifluoromethyl-4,4a,5,6-tetrahydro-7-oxa-3-thia-1-azanaphthalen-8a-yl)-4-fluorophenyl]-5-cyanopyridine-2-carboxamide] | 2.1
16 | NC1=N[C@@]2(c3cc(NC(=O)c4cnc(OC(F)F)cn4)ccc3F)CO[C@@H](C(F)(F)F)C[C@H]2CS1 (relative stereo) [Example 36, N-[3-((4aR*,6R*,8aS*)-2-amino-6-trifluoromethyl-4,4a,5,6-tetrahydro-7-oxa-3-thia-1-azanaphthalen-8a-yl)-4-fluorophenyl]-5-difluoromethoxypyrazine-2-carboxamide] | 0.5
17 | NC1=N[C@@]2(c3cc(NC(=O)c4ccc(F)cn4)ccc3F)CO[C@@H](C(F)(F)F)C[C@H]2CS1 (relative stereo) [Example 37, N-[3-((4aR*,6R*,8aS*)-2-amino-6-trifluoromethyl-4,4a,5,6-tetrahydro-7-oxa-3-thia-1-azanaphthlen-8a-yl)-4-fluorophenyl]-5-fluoropyriidne-2-carboxamide] | 2
18 | NC1=N[C@@]2(c3cc(NC(=O)c4ccccn4)ccc3F)CO[C@@H](C(F)(F)F)C[C@H]2CS1 (relative stereo) [Example 38, N-[3-((4aR*,6R*,8aS*)-2-amino-6-trifluoromethyl-4,4a,5,6-tetrahydro-7-oxa-3-thia-1-azanaphthalen-8a-yl)-4-fluorophenyl]-pyridine-2-carboxamide] | 3
